Reference: ChEMBL document CHEMBL1145638, “Discovery of a novel submicromolar inhibitor of the lymphoid specific tyrosine phosphatase” (Bioorg Med Chem Lett, 2008)

Biological target: T1, Tyrosine-protein phosphatase non-receptor type 22 (Homo sapiens, UniProt Q9Y2R2)
T1 sequence (Q9Y2R2 whole entry): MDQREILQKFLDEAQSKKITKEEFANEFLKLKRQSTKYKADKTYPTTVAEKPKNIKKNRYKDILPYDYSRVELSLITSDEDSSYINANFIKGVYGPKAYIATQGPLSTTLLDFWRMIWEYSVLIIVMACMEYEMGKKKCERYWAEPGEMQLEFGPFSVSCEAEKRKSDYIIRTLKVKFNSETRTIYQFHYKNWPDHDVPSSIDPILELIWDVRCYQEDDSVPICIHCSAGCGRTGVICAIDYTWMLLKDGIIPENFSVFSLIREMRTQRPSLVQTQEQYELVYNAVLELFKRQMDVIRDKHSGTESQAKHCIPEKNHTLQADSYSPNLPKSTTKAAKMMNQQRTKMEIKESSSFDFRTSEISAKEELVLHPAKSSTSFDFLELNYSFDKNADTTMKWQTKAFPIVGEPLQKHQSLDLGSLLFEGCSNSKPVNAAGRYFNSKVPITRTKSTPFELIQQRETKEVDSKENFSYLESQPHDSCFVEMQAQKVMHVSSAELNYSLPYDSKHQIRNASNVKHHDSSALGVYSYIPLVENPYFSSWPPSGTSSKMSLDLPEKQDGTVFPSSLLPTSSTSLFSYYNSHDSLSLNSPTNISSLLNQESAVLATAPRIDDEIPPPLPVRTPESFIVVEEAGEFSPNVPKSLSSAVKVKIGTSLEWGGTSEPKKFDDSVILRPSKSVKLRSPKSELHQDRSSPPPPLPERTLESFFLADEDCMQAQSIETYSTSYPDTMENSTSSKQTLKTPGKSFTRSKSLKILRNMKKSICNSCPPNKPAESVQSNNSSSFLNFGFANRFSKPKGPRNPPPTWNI
Assay: Inhibition of lymphoid specific tyrosine phosphatase

Work on COC(=O)CCN1C(=O)S/C(=C\c2ccc(-c3ccc(O)c(C(=O)OC)c3)s2)C1=O yielded an IC50 greater than 44 µM.
Molecule Cc1ccc(NC(=O)CN2C(=O)S/C(=C\c3ccc(-c4cccc(C(=O)O)c4C)o3)C2=O)cc1 (stereo in doubt; form 1) has an IC50 of 3.3 µM.
With COC(=O)CN1C(=O)S/C(=C\c2ccc(-c3ccc(O)c(C(=O)OC)c3)s2)C1=O the IC50 was greater than 44 µM.
Molecule O=C(O)CN1C(=O)S/C(=C\c2ccc(-c3ccc(O)c(C(=O)O)c3)o2)C1=O has an IC50 of 5.6 µM.
Molecule O=C(O)CCN1C(=O)S/C(=C\c2ccc(-c3ccc(O)c(C(=O)O)c3)s2)C1=O has an IC50 of 5.9 µM.
Work on O=C(O)CN1C(=O)/C(=C/c2ccc(-c3ccc(O)c(C(=O)O)c3)s2)SC1=S yielded an IC50 of 5.4 µM.
O=C1CN(/N=C/c2ccc(-c3ccc(O)c(C(=O)O)c3)s2)C(=O)N1 showed an IC50 of 34 µM.
COC(=O)c1cc(-c2ccc(/C=N/N3CC(=O)NC3=O)s2)ccc1O showed an IC50 greater than 44 µM.
In the case of COC(=O)c1cc(-c2ccc(/C=C3\SC(=O)N(CCC(=O)O)C3=O)s2)ccc1O, the IC50 is reported as 0.39 µM.
Work on Cc1ccc(NC(=O)CN2C(=O)S/C(=C\c3cccn3-c3cccc(C(=O)O)c3)C2=O)c(C)c1 yielded an IC50 of 1 µM.
COC(=O)c1cc(-c2ccc(/C=C3\SC(=O)N(CC(=O)O)C3=O)s2)ccc1O showed an IC50 of 18 µM.
In the case of O=C(O)CCN1C(=O)S/C(=C\c2ccc(-c3ccc(O)c(C(=O)O)c3)o2)C1=O, the IC50 is reported as 5.1 µM.
In the case of COC(=O)c1cc(-c2ccc(/C=N/N3CC(=O)NC3=O)o2)ccc1O, the IC50 is reported as greater than 44 µM.
With CC(C(=O)O)N1C(=O)/C(=C/C=C/c2ccco2)SC1=S (stereo not given) the IC50 was 2.5 µM.
O=C(O)CN1C(=O)CN(/N=C/c2ccc(-c3ccc(O)c(C(=O)O)c3)s2)C1=O was tested, and the IC50 was greater than 44 µM.
COC(=O)c1cc(-c2ccc(/C=C3\SC(=O)N(CC(=O)O)C3=O)o2)ccc1O gave an IC50 greater than 44 µM.
COC(=O)c1cc(-c2ccc(/C=C3\SC(=O)N(CCC(=O)O)C3=O)o2)ccc1O showed an IC50 of 4.3 µM.
O=C(O)CN1C(=O)CN(/N=C/c2ccc(-c3ccc(O)c(C(=O)O)c3)o2)C1=O gave an IC50 of 36 µM.
In the case of O=C(O)CCCN1C(=O)/C(=C\c2ccc(-c3nc4ccccc4s3)o2)SC1=S, the IC50 is reported as 1.3 µM.
In the case of COC(=O)CN1C(=O)S/C(=C\c2ccc(-c3ccc(O)c(C(=O)O)c3)o2)C1=O, the IC50 is reported as 4.8 µM.
In the case of O=C(O)CN1C(=O)/C(=C/c2ccc(-c3ccc(O)c(C(=O)O)c3)o2)SC1=S, the IC50 is reported as 8.7 µM.
COC(=O)CCN1C(=O)S/C(=C\c2ccc(-c3ccc(O)c(C(=O)OC)c3)o2)C1=O gave an IC50 of 44 µM.
Work on O=C(O)COc1ccc(-c2ccc(/C=C3\SC(=S)N(CC(=O)O)C3=O)o2)cc1C(=O)O yielded an IC50 greater than 44 µM.
O=C(O)C(Cc1ccccc1)N1C(=O)/C(=C/C2=c3ccccc3=CCC2)SC1=S (stereo not given) was tested, and the IC50 was 14 µM.
Cc1ccc(NC(=O)CN2C(=O)S/C(=C\c3ccc(-c4cccc(C(=O)O)c4C)o3)C2=O)cc1 (stereo in doubt; form 2) was tested, and the IC50 was 3.5 µM.
Molecule O=C1CN(/N=C/c2ccc(-c3ccc(O)c(C(=O)O)c3)o2)C(=O)N1 has an IC50 greater than 44 µM.
O=C(O)CCN1C(=O)/C(=C\c2ccc(-c3nc4ccccc4s3)o2)SC1=S was tested, and the IC50 was 0.98 µM.
With O=C(O)CN1C(=O)S/C(=C\c2ccc(-c3ccc(O)c(C(=O)O)c3)s2)C1=O the IC50 was 2.8 µM.
COC(=O)c1cc(-c2ccc(/C=C3\SC(=S)N(CC(=O)O)C3=O)s2)ccc1O was tested, and the IC50 was 4.3 µM.
For COC(=O)CN1C(=O)S/C(=C\c2ccc(-c3ccc(O)c(C(=O)OC)c3)o2)C1=O, the IC50 was greater than 44 µM.
For COC(=O)CN1C(=O)S/C(=C\c2ccc(-c3ccc(O)c(C(=O)O)c3)s2)C1=O, the IC50 was 1.8 µM.
Molecule CC(C)C(C(=O)O)N1C(=O)/C(=C/C=C/c2ccco2)SC1=S (stereo not given) has an IC50 of 1.9 µM.
With COC(=O)c1cc(-c2ccc(/C=C3\SC(=S)N(CC(=O)O)C3=O)o2)ccc1O the IC50 was 21 µM.
Cc1ccccc1NC(=O)CN1C(=O)S/C(=C\c2cccn2-c2cccc(C(=O)O)c2)C1=O gave an IC50 of 1.9 µM.
Cc1cccc(C)c1NC(=O)CN1C(=O)S/C(=C\c2cccn2-c2cccc(C(=O)O)c2)C1=O showed an IC50 of 4.8 µM.
